Source: patent publication US20260306639A1, “DEGRADER FOR DECOMPOSING CMET PROTEIN, AND PHARMACEUTICAL COMPOSITION COMPRISING SAME” (INNOCURE THERAPEUTICS, INC., priority 2022, published 2026)

Columns and labels:
[1] = test system: c-MET; assay: c-MET protein degradation (Simple Western), MKN-45 cells; type: cell-based, human; settings: MKN-45 gastric cancer cells, c-MET overexpressing; 24 hours
Procedure: (§1) In order to assess the resolution of the compound of the present invention for c-MET expressed in cells, cells were dispensed in a 12-well plate at a concentration of 2×10^5 cells/well, and then gastric cancer cell lines were treated with samples for 24 hours and lung cancer cell lines were treated for 48 hours. Cell lysates were collected using a scraper on ice, centrifuged at 4° C. 15,000 rpm for 30 min to obtain a protein-containing supernatant. Protein expression was then measured using the Simple Western Automated Western Blot System Abby instrument using 3 μg of protein for each sample. SDS and heat-induced denaturation proteins were separated by molecular weight, attached to capillary, reacted with anti-c-MET or anti-GAPDH antibodies, which are primary antibodies, and then reacted with HRP-conjugated secondary antibodies, and analyzed the protein expression signal with compass software. Protein expression was normalized based on the expression value of GAPDH, and protein development in each sample was measured as a percentage (%) based on 100% of samples treated with 0.1% DMSO carriers, and DC50 (concentration of a compound where 50% protein inhibition is achieved) was calculated from the change in protein expression amount due to compound treatment.

[2] = test system: c-MET; assay: c-MET protein degradation (Simple Western), SNU-638 cells; type: cell-based, human; settings: SNU-638 gastric cancer cells, c-MET overexpressing; 24 hours
Procedure: as §1

[3] = test system: c-MET; assay: c-MET protein degradation (Simple Western), EBC-1 cells; type: cell-based, human; settings: EBC-1 lung cancer cells, c-MET overexpressing; 48 hours
Procedure: as §1

[4] = test system: MKN-45; assay: cell viability / antiproliferative activity (WST-8), MKN-45 cells; type: cell-based; settings: Homo sapiens; MKN-45 gastric cancer cells; 72 hours
Procedure: c-MET overexpressing human gastric cancer cell lines [MKN45] and [SNU638] were cultured in RPMI medium with 10% fetal bovine serum, penicillin (100 U/ml), and streptomycin (100 mg/ml), and c-MET exon 14 skipping mutant human gastric cancer cell lines [Hs746T] were cultured in DMEM media. The c-MET overexpressing human lung cancer cell line EBC-1 was cultured in MEM media with the addition of 10% fetal bovine serum, penicillin (100 U/ml), and streptomycin (100 mg/ml). […] The compound synthesized in accordance with the present invention was prepared with a raw material solution of 10 mM dissolved in DMSO (dimethyl sulfoxide), and was sequentially diluted and processed.
In order to observe the inhibitory activity on cell growth, cells were dispensed in a 96-well plate at a concentration of 5,000 cells/well, and then treated with the compound prepared at various concentrations for 72 hours. The viability of the cells was calculated using GraphicPad Prism 8.0 software by adding 10 ml per well of WST-8 (water soluble tetrazolium salt) sample, which reacts with dehydrogenase present in the electron transport system of mitochondria to produce formazon, incubated for 2 hours, and measured absorbance at 450 nm.

DC50 [1] [nM] | DC50 [2] [nM] | DC50 [3] [nM] | IC50 [4] [nM] | Structure (SMILES)
< 100 | < 100 | < 100 |  | N#Cc1cccc(-c2ccc(=O)n(Cc3cccc(-c4ncc(OCC5CCN(CC(=O)N6CC(N7CCN(c8ccc9c(=O)n(C%10CCC(=O)NC%10=O)ncc9c8)CC7)C6)CC5)cn4)c3)n2)c1 (centres unmarked) [ICT-0001232]
 | > 1000 |  |  | Cc1nn(C2CCC(=O)NC2=O)c(=O)c2ccc(N3CCN(C4CN(CCN5CCC(COc6cnc(-c7cccc(Cn8nc(-c9cccc(C#N)c9)ccc8=O)c7)nc6)CC5)C4)CC3)cc12 (centres unmarked) [ICT-0001325]
< 100 | < 100 |  |  | Cc1nn(C2CCC(=O)NC2=O)c(=O)c2ccc(N3CCN(C(=O)C4CCN(CC(=O)N5CCC(COc6cnc(-c7cccc(Cn8nc(-c9cccc(C#N)c9)ccc8=O)c7)nc6)CC5)CC4)CC3)cc12 (centres unmarked) [ICT-0001218]
 | 100 to 1000 | < 100 |  | N#Cc1cccc(-c2ccc(=O)n(Cc3cccc(-c4ncc(-c5cccc(CN6CCC(CN7CCN(c8ccc(NC9CCC(=O)NC9=O)cc8F)CC7)CC6)c5)cn4)c3)n2)c1 (centres unmarked) [ICT-0001450]
 | > 1000 | < 100 |  | N#Cc1cccc(-c2ccc(=O)n(Cc3cccc(-c4ncc(-c5cccc(CN6CCN(c7ccc(C8CCC(=O)NC8=O)cn7)CC6)c5)cn4)c3)n2)c1 (centres unmarked) [ICT-0001449]
 | < 100 | < 100 |  | N#Cc1cccc(-c2ccc(=O)n(Cc3cccc(-c4ncc(OCC5CCN(CCN6CCN(c7ccc(NC8CCC(=O)NC8=O)cc7F)CC6)CC5)cn4)c3)n2)c1 (centres unmarked) [ICT-0001433, 3-(1-(3-(5-((1-(1-(2-(4-((2,6-dioxopiperidine-3-yl)amino)-2-fluorophenyl)piperazine-1-il)ethyl)piperidine-4-il)methoxy)pyrimidine-2-yl)benzyl)6-oxo-1,6-dihydropyridazine-3-yl)benzonitrile]
 | < 100 | < 100 |  | N#Cc1cccc(-c2ccc(=O)n(Cc3cccc(-c4ncc(OCC5CCN(c6ccc(NC7CCC(=O)NC7=O)cc6F)CC5)cn4)c3)n2)c1 (centres unmarked) [ICT-0001383]
 |  | < 100 |  | N#Cc1cccc(-c2ccc(=O)n(Cc3cccc(-c4ncc(OCC5CCN(CC(=O)N6CCN(CC7CCN(c8ccc(NC9CCC(=O)NC9=O)cc8F)CC7)CC6)CC5)cn4)c3)n2)c1 (centres unmarked) [ICT-0001468, 3-(1-{[3-(5-{[1-(2-{4-[(1-{4-[(2,6-dioxopiperidin-3-yl)amino]-2-fluorophenyl}piperidine-4-yl)methyl]piperazine-1-yl}-2-oxoethyl)piperidine-4-yl]methoxy}pyrimidine-2-yl)phenyl]methyl}-6-oxo-1,6-dihydropyridazine-3-yl)benzonitrile]
 | < 100 | < 100 |  | Cn1cc(-c2cnc3c(nnn3C[C@@H]3CN(c4ncc(-c5ccc(CN6CCN(CC(=O)N7CCN(c8ccc(NC9CCC(=O)NC9=O)cc8F)CC7)CC6)cc5)cn4)CCO3)n2)cn1 (some centres unmarked) [ICT-0001439]
 |  |  | < 100 | Cc1nn(C2CCC(=O)NC2=O)c(=O)c2cc(N3CCN(CC4CCN(C(=O)CN5CCC(COc6cnc(-c7cccc(Cn8nc(-c9cccc(C#N)c9)ccc8=O)c7)nc6)CC5)CC4)CC3)c(F)cc12 (centres unmarked) [ICT-0001231, 3-(1-(3-(5-((1-(2-(4-(4-(4-(3-(2,6-dioxopiperidine-3-yl)-7-fluoro-1-methyl-4-oxo-3,4-dihydrophthalazine-6-yl)piperazine-1-il)methyl)piperidine-1-il)-2-oxoethyl)piperidine-4-yl)methoxy)pyrimidine-2-yl)benzyl)6-oxo-1,6-dihydropyridazine-3-yl)benzonitrile]
 | < 100 | < 100 |  | N#Cc1cccc(-c2ccc(=O)n(Cc3cccc(-c4ncc(OCC5CCN(C(=O)CN6CCN(c7ccc(NC8CCC(=O)NC8=O)cc7F)CC6)CC5)cn4)c3)n2)c1 (centres unmarked) [ICT-0001494]
< 100 |  | 100 to 1000 |  | Cc1nn(C2CCC(=O)NC2=O)c(=O)c2ccc(N3CCN(C(=O)C4CN(CC(=O)N5CCC(COc6cnc(-c7cccc(Cn8nc(-c9cccc(C#N)c9)ccc8=O)c7)nc6)CC5)C4)CC3)cc12 (centres unmarked) [ICT-0001257]
< 100 | > 1000 |  |  | Cc1nn(C2CCC(=O)NC2=O)c(=O)c2c(NCC(=O)N3CCC(CN4CCC(COc5cnc(-c6cccc(Cn7nc(-c8cccc(C#N)c8)ccc7=O)c6)nc5)CC4)CC3)cccc12 (centres unmarked) [ICT-0000980]
< 100 |  |  |  | N#Cc1cccc(-c2ccc(=O)n(Cc3cccc(-c4ncc(OCC5CCN(CC(=O)NCCCC#Cc6ccc7c(=O)n(C8CCC(=O)NC8=O)ncc7c6)CC5)cn4)c3)n2)c1 (centres unmarked) [ICT-0001205]
100 to 1000 |  |  |  | N#Cc1cccc(-c2ccc(=O)n(Cc3cccc(-c4ncc(OCC5CCN(CCCC(=O)N6CCN(c7ccc8c(=O)n(C9CCC(=O)NC9=O)ncc8c7)CC6)CC5)cn4)c3)n2)c1 (centres unmarked) [ICT-0001226, 3-(1-(3-(5-((1-(4-(4-(2-(2,6-dioxopiperidine-3-yl)-1-oxo-1,2-dihydropetalazine-6-yl)piperazine-1-il)-4-oxobutyl)piperidine-4-il)methoxy)pyrimidine-2-yl)benzyl)-6-oxo-1,6-dihydropyridazine-3-yl)benzonitrile]
< 100 |  |  |  | Cc1nn(C2CCC(=O)NC2=O)c(=O)c2ccc(N3CCC(CN4CCN(CC(=O)N5CCC(COc6cnc(-c7cccc(Cn8nc(-c9cccc(C#N)c9)ccc8=O)c7)nc6)CC5)CC4)CC3)cc12 (centres unmarked) [ICT-0001213]
 |  | < 100 |  | N#Cc1cccc(-c2ccc(=O)n(Cc3cccc(-c4ncc(OCC5CCN(CC(=O)N6CCC(CN7CCN(c8ccc(NC9CCC(=O)NC9=O)cc8F)CC7)CC6)CC5)cn4)c3)n2)c1 (centres unmarked) [ICT-0001447, 3-(1-{[3-(5-{[1-(2-{4-[(4-{4-[(2,6-dioxopiperidin-3-yl)amino]-2-fluorophenyl}piperazine-1-yl)methyl]piperidine-1-yl}-2-oxoethyl)piperidine-4-yl]methoxy}pyrimidine-2-yl)phenyl]methyl}-6-oxo-1,6-dihydropyridazine-3-yl)benzonitrile]
< 100 |  |  |  | Cc1nn(C2CCC(=O)NC2=O)c(=O)c2cc(N3CCC(N4CCN(CC(=O)N5CCC(COc6cnc(-c7cccc(Cn8nc(-c9cccc(C#N)c9)ccc8=O)c7)nc6)CC5)CC4)CC3)ccc12 (centres unmarked) [ICT-0001270]
< 100 |  |  |  | Cc1nn(C2CCC(=O)NC2=O)c(=O)c2cc(N3CCN(C(=O)CCN4CCC(COc5cnc(-c6cccc(Cn7nc(-c8cccc(C#N)c8)ccc7=O)c6)nc5)CC4)CC3)ccc12 (centres unmarked) [ICT-0001225]
< 100 |  | > 1000 |  | N#Cc1cccc(-c2ccc(=O)n(Cc3cccc(-c4ncc(OCC5CCN(CCN6CCN(c7ccc8c(=O)n(C9CCC(=O)NC9=O)ncc8c7)CC6)CC5)cn4)c3)n2)c1 (centres unmarked) [ICT-0001276, 3-(1-{[3-(5-{[1-(2-{4-[2-(2,6-dioxopiperidin-3-yl)-1-oxo-1,2-dihydropetalazine-6-yl]piperazine-1-il}ethyl)piperidine-4-il]methoxy}pyrimidine-2-yl)phenyl]methyl}-6-oxo-1,6-dihydropyridazine-3-yl)benzonitrile]
< 100 |  |  |  | Cc1nn(C2CCC(=O)NC2=O)c(=O)c2ccc(N3CCN(CCCCC(=O)N4CCC(COc5cnc(-c6cccc(Cn7nc(-c8cccc(C#N)c8)ccc7=O)c6)nc5)CC4)CC3)cc12 (centres unmarked) [ICT-0001176]
< 100 |  |  |  | N#Cc1cccc(-c2ccc(=O)n(Cc3cccc(-c4ncc(OCC5CCN(C(=O)COCCOCCNc6ccc7c(=O)n(C8CCC(=O)NC8=O)ncc7c6)CC5)cn4)c3)n2)c1 (centres unmarked) [ICT-0000986, 3-{1-[(3-{5-[(1-{2-[2-(2-{[2-(2,6-dioxopiperidin-3-yl)-1-oxo-1,2-dihydropthalazine-6-yl]amino}ethoxy)ethoxy]acetyl}piperidine-4-il)methoxy]pyrimidine-2-yl}phenyl)methyl]-6-oxo-1,6-dihydropyridazine-3-yl}benzonitrile]
< 100 |  |  |  | Cc1nn(C2CCC(=O)NC2=O)c(=O)c2cc(N3CCN(C(=O)CCCN4CCC(COc5cnc(-c6cccc(Cn7nc(-c8cccc(C#N)c8)ccc7=O)c6)nc5)CC4)CC3)ccc12 (centres unmarked) [ICT-0001228]
100 to 1000 |  | > 1000 |  | Cc1nn(C2CCC(=O)NC2=O)c(=O)c2cc(N3CCN(CCN4CCC(COc5cnc(-c6cccc(Cn7nc(-c8cccc(C#N)c8)ccc7=O)c6)nc5)CC4)CC3)ccc12 (centres unmarked) [ICT-0001278, 3-(1-{[3-(5-{[1-(2-{4-[3-(2,6-dioxopiperidin-3-yl)-1-methyl-4-oxo-3,4-dihydropthalazine-6-yl]piperazine-1-yl}ethyl)piperidine-4-day]methoxy}pyrimidine-2-yl)phenyl]methyl}6-oxo-1,6-dihydropyridazine-3-yl)benzonitrile]
 | > 1000 |  |  | Cc1nn(C2CCC(=O)NC2=O)c(=O)c2cc(N3CCN(CC4CCN(CCN5CCC(COc6cnc(-c7cccc(Cn8nc(-c9cccc(C#N)c9)ccc8=O)c7)nc6)CC5)CC4)CC3)c(F)cc12 (centres unmarked) [ICT-0001326]

Structure (SMILES) | DC50 [1] [nM] | DC50 [2] [nM] | DC50 [3] [nM] | IC50 [4] [nM]
N#Cc1cccc(-c2ccc(=O)n(Cc3cccc(-c4ncc(-c5cccc(CN6CCN(c7ccc(NC8CCC(=O)NC8=O)cc7F)CC6)c5)cn4)c3)n2)c1 (centres unmarked) [ICT-0001434] |  | > 1000 | < 100 | 
Cc1nn(C2CCC(=O)NC2=O)c(=O)c2cc(N3CCN(C(=O)CN4CCC(COc5cnc(-c6cccc(Cn7nc(-c8cccc(C#N)c8)ccc7=O)c6)nc5)CC4)CC3)ccc12 (centres unmarked) [ICT-0001115, 3-(1-(3-(5-((1-(2-(4-(3-(2,6-dioxopiperidin-3-yl)-1-methyl-4-oxo-3,4-dihydropetalazine-6-yl)piperazine-1-yl)2-oxoethyl)piperidine-4-il)methoxy)pyrimidine-2-yl)benzyl)6-oxo-1,6-dihydropyridazine-3-yl)benzonitrile] | < 100 |  |  | 
